Results from ChEMBL document CHEMBL1144916, “Identification of N,N-disubstituted phenylalanines as a novel class of inhibitors of hepatitis C NS5B polymerase” (J Med Chem, 2003).

Biological target: RNA-directed RNA polymerase (Hepacivirus hominis, UniProt O39930)
Test: Inhibitory activity against Hepatitis C RNA dependent RNA polymerase Nonstructural protein 5B (NS5B polymerase) expressed from baculovirus-infected Sf9 insect cells

Chain of RNA-directed RNA polymerase (O39930 whole entry): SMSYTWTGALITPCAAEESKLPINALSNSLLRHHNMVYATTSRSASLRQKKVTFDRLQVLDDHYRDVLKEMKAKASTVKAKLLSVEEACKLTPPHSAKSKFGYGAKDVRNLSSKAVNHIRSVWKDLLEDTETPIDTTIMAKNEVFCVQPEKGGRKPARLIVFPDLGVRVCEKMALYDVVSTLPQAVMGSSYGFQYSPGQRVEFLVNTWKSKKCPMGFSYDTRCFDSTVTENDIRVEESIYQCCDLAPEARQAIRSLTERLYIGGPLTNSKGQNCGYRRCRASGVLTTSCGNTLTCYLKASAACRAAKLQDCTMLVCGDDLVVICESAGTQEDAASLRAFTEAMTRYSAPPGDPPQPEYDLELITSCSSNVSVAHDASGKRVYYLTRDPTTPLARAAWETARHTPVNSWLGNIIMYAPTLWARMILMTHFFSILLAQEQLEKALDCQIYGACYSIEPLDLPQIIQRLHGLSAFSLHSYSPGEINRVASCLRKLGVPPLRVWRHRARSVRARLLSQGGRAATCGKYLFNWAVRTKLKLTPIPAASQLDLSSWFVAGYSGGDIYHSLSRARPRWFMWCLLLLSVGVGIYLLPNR

| SMILES | IC50 [µM] |
| --- | --- |
| O=C(O)[C@H](Cc1ccccc1)N(Cc1cccc([N+](=O)[O-])c1)C(=O)c1ccc(Cl)cc1Cl | 0.7 |
| O=C(O)[C@H](Cc1ccccc1)N(Cc1ccc(Br)s1)C(=O)c1ccc(Cl)cc1Cl | 3.1 |
| COc1ccc(-c2ccc(Cl)cc2)c(COc2ccc(-c3nc4cc(C(=O)O)ccc4n3C3CCCCC3)cc2)c1 | 0.62 |
| O=C(O)[C@H](Cc1ccccc1)N(Cc1ccc[n+]([O-])c1)C(=O)c1ccc(Cl)cc1Cl | 2.7 |
| O=C(O)[C@H](Cc1ccccc1)N(Cc1cccc(C(F)(F)F)c1)C(=O)c1ccc(Cl)cc1Cl | 1.7 |
| N#Cc1cccc(CN(C(=O)c2ccc(Cl)cc2Cl)[C@@H](Cc2ccccc2)C(=O)O)c1 | 0.8 |
| O=C(O)[C@H](Cc1ccccc1)N(Cc1cccc(Br)c1)C(=O)c1ccc(Cl)cc1 | 11 |
| O=C(O)CN(Cc1cccc(Br)c1)C(=O)c1ccc(Cl)cc1Cl | 53 |
| O=C(O)[C@H](Cc1ccccc1)N(Cc1ccc(-c2cc3ccccc3o2)s1)C(=O)c1ccc(Cl)cc1Cl | 8.6 |
| O=C(O)[C@H](Cc1ccccc1)N(Cc1ccc(Br)cc1)C(=O)c1ccc(Cl)cc1Cl | 9.1 |
| O=C(O)[C@H](Cc1ccccc1)N(Cc1cccc(Br)c1)C(=O)c1ccccc1Cl | 15 |
| N#Cc1ccccc1CN(C(=O)c1ccc(Cl)cc1Cl)[C@@H](Cc1ccccc1)C(=O)O | 6 |
| N#Cc1ccc(CN(C(=O)c2ccc(Cl)cc2Cl)[C@@H](Cc2ccccc2)C(=O)O)cc1 | 8 |
| O=C(O)[C@H](Cc1ccccc1)N(Cc1ccc(-c2nccs2)cc1)C(=O)c1ccc(Cl)cc1Cl | 5.7 |

Continued, values first:

| IC50 [µM] | SMILES |
| --- | --- |
| 8 | O=C(O)[C@H](Cc1ccccc1)N(Cc1ccccc1Br)C(=O)c1ccc(Cl)cc1Cl |
| 3.5 | O=C(O)[C@H](Cc1ccccc1)N(Cc1cccc(Br)c1)C(=O)c1ccc(Cl)cc1Cl |
| 8 | O=C(O)[C@H](Cc1ccccc1)N(Cc1ccccc1)C(=O)c1ccc(Cl)cc1Cl |
| 1.8 | Cc1cccc(CN(C(=O)c2ccc(Cl)cc2Cl)[C@@H](Cc2ccccc2)C(=O)O)c1 |
| 3.2 | O=C(O)[C@H](Cc1ccccc1)N(Cc1cccc(F)c1)C(=O)c1ccc(Cl)cc1Cl |
| 8.6 | O=C(O)[C@@H](Cc1ccccc1)N(Cc1cccc(Br)c1)C(=O)c1ccc(Cl)cc1Cl |
| 11 | O=C(O)[C@H](Cc1ccccc1)N(Cc1cccnc1)C(=O)c1ccc(Cl)cc1Cl |
| 1.4 | O=C(O)[C@H](Cc1ccccc1)N(Cc1cccc(Cl)c1)C(=O)c1ccc(Cl)cc1Cl |
